Source: patent US9822114B2, “Tricyclic oxazolidinone antibiotic compounds” (Idorsia Pharmaceuticals Ltd, priority 2008, dated 2017)
Values after ≈ are worked out from the molar mass of the structure shown.

Tested on: M. catarrhalis A894
Experiment: Minimal inhibitory concentration (MIC), microdilution method in cation-adjusted Mueller-Hinton Broth (CLSI M7-A7)
Format: cell-based
Settings: Moraxella catarrhalis, strain A894
Protocol: Minimal inhibitory concentrations (MICs; mg/1) were determined in cation-adjusted Mueller-Hinton Broth by a microdilution method following the description given in “Methods for Dilution Antimicrobial Susceptibility Tests for Bacteria that Grow Aerobically”, Approved standard, 7th ed., Clinical and Laboratory Standards Institute (CLSI) Document M7-A7, Wayne, Pa., USA, 2006.

SMILES | MIC [µg/mL]
O=C1CSc2ccc(N3C[C@H](CCNC[C@@H]4Cn5c(=O)ccc6nccc4c65)OC3=O)cc2N1 [Example 78, (R)-4-({2-[(S)-2-oxo-3-(3-oxo-3,4-dihydro-2H-benzo[1,4]thiazin-6-yl)-oxazolidin-5-yl]-ethylamino}-methyl)-4,5-dihydro-pyrrolo[3,2,1-de][1,5]naphthyridin-7-one] | ≤ 0.031
O=C1CSc2ccc(N3C[C@H](CCNCC4Cn5c(=O)ccc6ccc(F)c4c65)OC3=O)cc2N1 (mixture of isomers) [Example 4, (1RS)-9-fluoro-1-({2-[(S)-2-oxo-3-(3-oxo-3,4-dihydro-2H-benzo[1,4]thiazin-6-yl)-oxazolidin-5-yl]-ethylamino}-methyl)-1,2-dihydro-pyrrolo[3,2,1-ij]quinolin-4-one] | ≤ 0.031
O=C1CSc2ccc(N3C[C@H](CCNCC4Cn5c(=O)ccc6ncc(F)c4c65)OC3=O)cc2N1 (mixture of isomers) [Example 99, (RS)-3-fluoro-4-({2-[(S)-2-oxo-3-(3-oxo-3,4-dihydro-2H-benzo[1,4]thiazin-6-yl)-oxazolidin-5-yl]-ethylamino}-methyl)-4,5-dihydro-pyrrolo[3,2,1-de][1,5]naphthyridin-7-one] | ≤ 0.031
CCOC(=O)c1ccc2c3c1ccc(=O)n3C[C@@H]2NCCC[C@H]1CN(c2ccc3c(c2)NC(=O)CS3)C(=O)O1 [Example 119, (R)-4-oxo-1-{3-[(S)-2-oxo-3-(3-oxo-3,4-dihydro-2H-benzo[1,4]thiazin-6-yl)-oxazolidin-5-yl]-propylamino}-1,2-dihydro-4H-pyrrolo[3,2,1-ij]quinoline-7-carboxylic acid ethyl ester] | ≤ 0.031
O=C1COc2ccc(N3C[C@H](CCCNC4Cn5c(=O)ccc6ncc(F)c4c65)OC3=O)cc2N1 (mixture of isomers) [Example 97, (RS)-3-fluoro-4-{3-[(S)-2-oxo-3-(3-oxo-3,4-dihydro-2H-benzo[1,4]oxazin-6-yl)-oxazolidin-5-yl]-propylamino}-4,5-dihydro-pyrrolo[3,2,1-de][1,5]naphthyridin-7-one] | ≤ 0.031
O=C1CSc2ccc(N3C[C@H](CCCN[C@H]4Cn5c(=O)ccc6ccc(F)c4c65)OC3=O)cc2N1 [Example 129, (R)-9-fluoro-1-{3-[(S)-2-oxo-3-(3-oxo-3,4-dihydro-2H-benzo[1,4]thiazin-6-yl)-oxazolidin-5-yl]-propylamino}-1,2-dihydro-pyrrolo[3,2,1-ij]quinolin-4-one] | ≤ 0.031
O=C1CSc2ccc(N3C[C@@H](CNCC4Cn5c(=O)cnc6cccc4c65)OC3=O)cc2N1 (mixture of isomers) [Example 110, (RS)-6-({[(R)-2-oxo-3-(3-oxo-3,4-dihydro-2H-benzo[1,4]thiazin-6-yl)-oxazolidin-5-ylmethyl]-amino}-methyl)-5,6-dihydro-pyrrolo[1,2,3-de]quinoxalin-3-one] | ≤ 0.031
O=C1CSc2ccc(N3C[C@@H](CCCN[C@H]4Cn5c(=O)ccc6cccc4c65)OC3=O)cc2N1 [Example 109, (R)-1-{3-[(R)-2-oxo-3-(3-oxo-3,4-dihydro-2H-benzo[1,4]thiazin-6-yl)-oxazolidin-5-yl]-propylamino}-1,2-dihydro-pyrrolo[3,2,1-ij]quinolin-4-one] | ≤ 0.031
O=C1CSc2ccc(N3C[C@@H](CCCN(CCCO)C4Cn5c(=O)ccc6ccc(F)c4c65)OC3=O)cc2N1 (mixture of isomers) [Example 92, (RS)-9-fluoro-1-((3-hydroxy-propyl)-{3-[(R)-2-oxo-3-(3-oxo-3,4-dihydro-2H-benzo[1,4]thiazin-6-yl)-oxazolidin-5-yl]-propyl}-amino)-1,2-dihydro-pyrrolo[3,2,1-ij]quinolin-4-one] | ≤ 0.031
O=C1COc2ccc(N3C[C@H](CCCN[C@@H]4Cn5c(=O)ccc6cccc4c65)OC3=O)cc2N1 [Example 86, (S)-1-{3-[(S)-2-oxo-3-(3-oxo-3,4-dihydro-2H-benzo[1,4]oxazin-6-yl)-oxazolidin-5-yl]-propylamino}-1,2-dihydro-pyrrolo[3,2,1-ij]quinolin-4-one] | ≤ 0.031
O=C1COc2ccc(N3C[C@H](CCN[C@@H]4Cn5c(=O)ccc6cccc4c65)OC3=O)cc2N1 [Example 89, (S)-1-{2-[(S)-2-oxo-3-(3-oxo-3,4-dihydro-2H-benzo[1,4]oxazin-6-yl)-oxazolidin-5-yl]-ethylamino}-1,2-dihydro-pyrrolo[3,2,1-ij]quinolin-4-one] | 0.063 (≈ 0.141 µM)
O=C1CSc2ccc(N3C[C@H](CCN(CCO)CC4Cn5c(=O)ccc6ccc(F)c4c65)OC3=O)cc2N1 (mixture of isomers) [Example 91, (RS)-9-fluoro-1-[((2-hydroxy-ethyl)-{2-[(S)-2-oxo-3-(3-oxo-3,4-dihydro-2H-benzo[1,4]thiazin-6-yl)-oxazolidin-5-yl]-ethyl}-amino)-methyl]-1,2-dihydro-pyrrolo[3,2,1-ij]quinolin-4-one] | ≤ 0.031
O=C1CSc2ccc(N3C[C@@H](CNCC4Cn5c(=O)ccc6ncc(F)c4c65)OC3=O)cc2N1 (mixture of isomers) [Example 100, (RS)-3-fluoro-4-({[(R)-2-oxo-3-(3-oxo-3,4-dihydro-2H-benzo[1,4]thiazin-6-yl)-oxazolidin-5-ylmethyl]-amino}-methyl)-4,5-dihydro-pyrrolo[3,2,1-de][1,5]naphthyridin-7-one] | 0.031
O=C1CSc2ccc(N3C[C@@H](CCCN[C@H]4Cn5c(=O)ccc6nccc4c65)OC3=O)cc2N1 [Example 18, (4R)-4-{3-[(R)-2-oxo-3-(3-oxo-3,4-dihydro-2H-benzo[1,4]thiazin-6-yl)-oxazolidin-5-yl]-propylamino}-4,5-dihydro-pyrrolo[3,2,1-de][1,5]naphthyridin-7-one] | ≤ 0.031
O=C1O[C@H](CNCC2Cn3c(=O)ccc4ccc(F)c2c43)CN1c1ccc2c(c1)OCCO2 (mixture of isomers) [Example 31, (1RS)-1-({[(R)-3-(2,3-dihydro-benzo[1,4]dioxin-6-yl)-2-oxo-oxazolidin-5-ylmethyl]-amino}-methyl)-9-fluoro-1,2-dihydro-pyrrolo[3,2,1-ij]quinolin-4-one] | 16
O=C1CSc2ccc(N3C[C@H](CCNC4Cn5c(=O)ccc6ncc(F)c4c65)OC3=O)cc2N1 (mixture of isomers) [Example 84, (RS)-3-fluoro-4-{2-[(S)-2-oxo-3-(3-oxo-3,4-dihydro-2H-benzo[1,4]thiazin-6-yl)-oxazolidin-5-yl]-ethylamino}-4,5-dihydro-pyrrolo[3,2,1-de][1,5]naphthyridin-7-one] | 0.063
O=C1COc2ccc(N3C[C@@H](CCCNC4Cn5c(=O)ccc6ncc(F)c4c65)OC3=O)cc2N1 (mixture of isomers) [Example 95, (RS)-3-fluoro-4-{3-[(R)-2-oxo-3-(3-oxo-3,4-dihydro-2H-benzo[1,4]oxazin-6-yl)-oxazolidin-5-yl]-propylamino}-4,5-dihydro-pyrrolo[3,2,1-de][1,5]naphthyridin-7-one] | ≤ 0.031

The next lines start with the values.

MIC [µg/mL] | SMILES
≤ 0.031 | O=C1CSc2ccc(N3C[C@@H](CCCN[C@@H]4c5c(F)ccc6ccc(=O)n(c56)[C@H]4CO)OC3=O)cc2N1 (relative stereo) [Example 182, (1R*,2R*)-9-fluoro-2-hydroxymethyl-1-{3-[(R)-2-oxo-3-(3-oxo-3,4-dihydro-2H-benzo[1,4]thiazin-6-yl)-oxazolidin-5-yl]-propylamino}-1,2-dihydro-pyrrolo[3,2,1-ij]quinolin-4-one]
≤ 0.031 | C#Cc1ccc2ccc(=O)n3c2c1C(NCCC[C@@H]1CN(c2ccc4c(c2)NC(=O)CS4)C(=O)O1)C3 (mixture of isomers) [Example 180, (RS)-9-ethynyl-1-{3-[(R)-2-oxo-3-(3-oxo-3,4-dihydro-2H-benzo[1,4]thiazin-6-yl)-oxazolidin-5-yl]-propylamino}-1,2-dihydro-pyrrolo[3,2,1-ij]quinolin-4-one]
≤ 0.031 | O=C1COc2ccc(N3C[C@H](CCCN[C@@H]4Cn5c(=O)ccc6ncc(F)c4c65)OC3=O)cc2N1 [Example 149, (S)-3-fluoro-4-{3-[(S)-2-oxo-3-(3-oxo-3,4-dihydro-2H-benzo[1,4]oxazin-6-yl)-oxazolidin-5-yl]-propylamino}-4,5-dihydro-pyrrolo[3,2,1-de][1,5]naphthyridin-7-one]
≤ 0.031 | O=C1COc2ccc(N3C[C@H](CCCN[C@H]4Cn5c(=O)cnc6ccc(F)c4c65)OC3=O)nc2N1 [Example 131, (R)-7-fluoro-6-{3-[(S)-2-oxo-3-(3-oxo-3,4-dihydro-2H-pyrido[3,2-b][1,4]oxazin-6-yl)-oxazolidin-5-yl]-propylamino}-5,6-dihydro-pyrrolo[1,2,3-de]quinoxalin-3-one]
≤ 0.031 | O=C1CSc2ccc(N3C[C@H](CCCN[C@@H]4Cn5c(=O)ccc6ncc(F)c4c65)OC3=O)cc2N1 [Example 148, (S)-3-fluoro-4-{3-[(S)-2-oxo-3-(3-oxo-3,4-dihydro-2H-benzo[1,4]thiazin-6-yl)-oxazolidin-5-yl]-propylamino}-4,5-dihydro-pyrrolo[3,2,1-de][1,5]naphthyridin-7-one]
≤ 0.031 | Cc1ccc2ccc(=O)n3c2c1C(NCCC[C@@H]1CN(c2ccc4c(c2)NC(=O)CS4)C(=O)O1)C3 (mixture of isomers) [Example 152, (RS)-9-methyl-1-{3-[(R)-2-oxo-3-(3-oxo-3,4-dihydro-2H-benzo[1,4]thiazin-6-yl)-oxazolidin-5-yl]-propylamino}-1,2-dihydro-pyrrolo[3,2,1-ij]quinolin-4-one]
≤ 0.031 | O=C1COc2ccc(N3C[C@H](CCNCC4CN5C(=O)CCc6ccc(F)c4c65)OC3=O)cc2N1 (mixture of isomers) [Example 187, (RS)-9-fluoro-1-({2-[(S)-2-oxo-3-(3-oxo-3,4-dihydro-2H-benzo[1,4]oxazin-6-yl)-oxazolidin-5-yl]-ethylamino}-methyl)-1,2,5,6-tetrahydro-pyrrolo[3,2,1-ij]quinolin-4-one]
≤ 0.031 | O=C1CSc2ccc(N3C[C@@H](CCCN[C@@H]4Cn5c(=O)ccc6ncc(F)c4c65)OC3=O)cc2N1 [Example 145, (S)-3-fluoro-4-{3-[(R)-2-oxo-3-(3-oxo-3,4-dihydro-2H-benzo[1,4]thiazin-6-yl)-oxazolidin-5-yl]-propylamino}-4,5-dihydro-pyrrolo[3,2,1-de][1,5]naphthyridin-7-one]
